Where a name gives a salt, the structure may show the parent alone. Read-outs that look alike come from different tables or passages of the source.
Experiments:
[1] = test system: Protein kinase A catalytic subunit; assay: Inhibition of protein kinase A phosphorylation of histone; assay type: biochemical; conditions: for PKA percent inhibition (phosphorylation of histone): percent inhibition at the maximum concentration tested 100 μM
Description: Protein kinase A activity was determined as follows. Protein kinase A catalytic subunit was purchased from Sigma Chemical Company. […] Incubation was at 30° C. for 5 minutes, then the assay was completed as described for protein kinase C above.

[2] = test system: protein kinase C from mouse brains; assay: 3H-Phorbol dibutyrate binding (inhibition of binding of phorbol ester to protein kinase C); conditions: for IC50: IC50 determined with program EBDA
Description: The ability of active compounds to inhibit the binding of phorbol ester to protein kinase C from mouse brains was measured as follows. Mouse brains were homogenized in ice-cold 50 mM Tris buffer, pH 7.4, containing 0.5 mM CaCl2, in a 15 mL Dounce homogenizer with 10 gentle strokes. The homogenate was centrifuged at 100,000×g for 1 hour at 4° C. The pellets were resuspended in 25 mL of the same ice-cold buffer and protein concentration was adjusted to 0.4 mg/mL. To each binding tube was added […] of the buffer, […] of [20-^3 H]Phorbol 12,13-dibutyrate, […] final concentration in assay, […] of test drug or displacing ligand, 50 uL of 50 mM Tris, pH 7.4 at 25° C. containing 1% bovine serum albumin, and […] enzyme preparation. Tubes were incubated at 37° C. for 30 minutes, then terminated by filtration onto Whatman GF/B glass fiber filters followed by washing with 2 mL ice-cold 50 mM Tris, pH 7.4, four times. Nonspecific binding was defined as that binding occurring in the presence of 1 mM phorbol ester. Percent inhibition was determined for each inhibitor candidate, and IC50 values were determined using the computer program "EBDA".

[3] = biological target: Protein kinase C from mouse brain; assay: Inhibition of PKC phosphorylation of histone; assay type: biochemical
Description: Protein kinase C from mouse brain was used in the screening protocol since it contains several isozymes of the enzyme. The tissue was prepared by homogenizing two mouse brains minus the cerebelli in 5 ml of 25 mM Tris-HCl,pH 7.4, containing 2 mM ethylenediamine tetraacetic acid (EDTA) and 1 mM ethylene glycol tetraacetic acid (EGTA), using a polytron at setting 5 for 15 seconds. The homogenate was centrifuged for 1 hour at 50,000×g at 4° C. The supernatant was used as the source of enzyme. The standard reaction mixture (250 μl) contained 20 mM Tris-HCl,pH 7.5, 10 mM Mg (CH3 COO)2, 400 μM CaCl2, 0.1 mM EGTA, […] [γ-^32 P] ATP (1200 cpm/pmol), 100 μg/ml phosphatidylserine, 10 μM histone, 1 μM phorbol 12-myristate-13-acetate, 10 μl enzyme preparation and 25 μl water or test drug. The mixture was incubated at 30° C. for 5 minutes. Mixtures were removed to an ice-bath, a 50 μl aliquot of each was added to Whatman P81 paper and washed in 10% TCA for 20 minutes. The paper was then washed with ethanol, followed by ethyl ether and finally air dryed. PKC activity was quantitated by liquid scintillation counting.

[4] = mouse brain PKC, histone, 30° C., 5 minutes, read-out: PKC IC50 (phosphorylation of histone)
[5] = text summary of Table IV, read-out: IC50, inhibition of phosphorylation by PKC

Row | PKA percent inhibition (phosphorylation of histone) [1] [%] | % inhibition @ 100 μM (3H-phorbol dibutyrate binding) [2] [%] | IC50 [3, 4] [µM] | IC50 ([1]; reference standards only, read-out: PKA IC50 (phosphorylation of histone)) [µM] | % inhibition @ 100 μM (3H-phorbol dibutyrate binding) ([2]; dihydrochloride) [%] | IC50 ([2]; dihydrochloride) [µM] | IC50 [3, 5] [µM] | IC50 [2] [µM] | SMILES
1 | 0 | 49 | 52 |  |  |  |  |  | CCCCCCCCCCCCC(=O)N1CCCCC1CNC(=O)[C@H](C)N (stereo partly shown) [2-Amino-N-([1-(1-oxotridecyl)-2-piperidinyl]methyl)propanamide hydrochloride]
2 | 0 |  | 18 |  |  |  |  |  | CCCCCCCCCCCCC(=O)N1CCCCC1CNC(=O)[C@@H](N)CCCN (stereo partly shown) [2.5-Diamino-N-([1-(1-oxotridecyl)-2-piperidinyl]methyl)pentanamide dihydrochloride]
3 | 0 |  | 46 |  |  |  |  |  | CCCCCCCCCCCC(=O)N1CCC[C@H]1CNC(=O)[C@@H](N)CCCCN [2.6-Diamino-N-([1-(1-oxododecyl)-2-pyrrolidinyl]methyl)hexanamide dihydrochloride]
4 | 0 | 9 | 44 |  |  |  |  |  | CCCCCCCCCCCCC(=O)N1CCCCC1CNC(=O)[C@@H](N)CO (stereo partly shown) [2-Amino-3-hydroxy-N-([1-(1-oxotridecyl)-2-piperidinyl]methyl)propanamide hydrochloride]
5 |  |  | 9 | 28 |  |  |  |  | CC1CNCCN1S(=O)(=O)c1cccc2cnccc12 (stereo not shown) [Example H-7, reference compound]
6 | 0 |  | 13 |  | 22 | 191 | 13 |  | CCCCCCCCCCCCC(=O)N1CCCCC1CNC(=O)[C@@H](N)CCCCN (stereo partly shown) [2,6-diamino-N-([1-(1-oxotridecyl)-2-piperidinyl]methyl)hexan] [2,6-Diamino-N-([1-(1-oxotridecyl)-2-piperidinyl]methyl)hexanamide dihydrochloride]
7 |  |  |  |  | 47 | 133 |  |  | CCCCCCCCCCCCC(=O)N1CCCCC1CNC(=O)[C@@H](N)CCCCN (stereo partly shown) [2,6-diamino-N-([1-(1-oxotridecyl)-2-piperidinyl]methylhexana] [2,6-diamino-N-([1-(1-oxotridecyl)-2-piperidinyl]methylhexanamidedihydrochloride]
8 | 0 | 45 | 36 |  |  |  |  | 139 | CCCCCCCCCCCCC(=O)N1CCCCC1CNC(=O)CCN.O=C(O)/C=C/C(=O)O (stereo not shown) [3-Amino-N-([1-(1-oxotridecyl)-2-piperidinyl]methyl)propanamide fumarate]
9 | 0 | 21 | 51 |  |  |  |  |  | CCCCCCCCCCCCC(=O)N1CCCCC1CNC(=O)CN.Cl (stereo not shown) [2-Amino-N-([1-(1-oxotridecyl)-2-piperidinyl]methyl)ethanamide hydrochloride]
10 | 0 | 17 | 72 |  |  |  |  |  | CCCCCCCCCCCCC(=O)N1CCCCC1CNC(=O)[C@@H](N)CCC(N)=O (stereo partly shown) [4-Amino-5-oxo-5-[([1-(1-oxotridecyl)-2-piperidinyl]methyl)amino]pentanamide hydrochloride]
11 | 0 | 34 | 29 |  |  |  |  | 157 | CCCCCCCCCCCCC(=O)N1CCCCC1CNC(=O)C1CCCNC1 (stereo not shown) [N-[([1-Oxotridecyl)-2-piperidinyl]methyl)amino]3-methyloxopiperidine hydrochloride]
12 | 0 | 2 | 92 |  |  |  | 92 |  | CCCCCCCCCCCCC(=O)N1CCCCC1CNC(=O)[C@@H](N)CC(=O)OCc1ccccc1 (stereo partly shown) [3-Amino-4-oxo-4-[([1-(1-oxotridecyl)-2-piperidinyl]methyl)amino]butanoic acid phenylmethyl ester hydrochloride]
13 | 0 | 28 | 60 |  |  |  |  | 343 | CCCCCCCCCCCCC(=O)N1CCCCC1CNC(=O)[C@@H](N)Cc1c[nH]cn1 (stereo partly shown) [2-Amino-N-([1-(1-oxotridecyl)-2-piperidinyl]methyl)-3-(1H-imidazol-4-yl)propanamide dihydrochloride]

Row | SMILES | PKA percent inhibition (phosphorylation of histone) [1] [%] | % inhibition @ 100 μM (3H-phorbol dibutyrate binding) [2] [%] | IC50 [3, 4] [µM] | IC50 ([1]; reference standards only, read-out: PKA IC50 (phosphorylation of histone)) [µM] | % inhibition @ 100 μM (3H-phorbol dibutyrate binding) ([2]; dihydrochloride) [%] | IC50 ([2]; dihydrochloride) [µM] | IC50 [3, 5] [µM] | IC50 [2] [µM]
14 | CCCCCCCCCCCCC/C=C/[C@@H](O)[C@@H](N)CO [Sphingosine, reference compound] | 88 |  | 15 |  |  |  |  | 

Reference: patent publication US5189046A, “Protein kinase C modulators” (Nova Pharmaceutical Corporation, priority 1991, dated 1993)
